How the values were obtained:
[1] = target: T1, mCXCR1 (Mus musculus, UniProt Q810W6); assay: CETSA and isothermal dose-response (ITDRF-CETSA) in cell lysate, Western blot; assay type: biochemical; settings: HL-1 lysate; 20 uM DSS, 30 min at room temperature, 3 min at 37-73 C; ITDRF 0-20 uM at 61 C
T1 construct: gene Cxcr1; native full-length receptor in freeze-thaw lysate supernatant of mouse HL-1 cardiomyocytes; detected by Western blot (anti-CXCR1 bs-1009R)
T1 sequence (Q810W6 1-351): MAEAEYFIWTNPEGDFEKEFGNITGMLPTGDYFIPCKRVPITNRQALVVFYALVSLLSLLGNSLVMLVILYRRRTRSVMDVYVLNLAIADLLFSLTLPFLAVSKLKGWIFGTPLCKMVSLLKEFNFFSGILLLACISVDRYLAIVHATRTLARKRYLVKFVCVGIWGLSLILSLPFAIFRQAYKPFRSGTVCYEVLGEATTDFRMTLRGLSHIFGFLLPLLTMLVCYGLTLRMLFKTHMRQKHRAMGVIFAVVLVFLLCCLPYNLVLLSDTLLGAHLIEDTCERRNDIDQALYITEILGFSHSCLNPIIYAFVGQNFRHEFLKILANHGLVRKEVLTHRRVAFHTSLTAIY

[2] = target: T2, hCXCR1 (Homo sapiens, UniProt P25024); assay: CETSA in cell lysate, Western blot; assay type: biochemical; settings: AC-16 lysate; 20 uM DSS, 30 min at room temperature, 3 min at 37-73 C
T2 construct: gene CXCR1; native full-length receptor in freeze-thaw lysate supernatant of human AC-16 cardiomyocytes; detected by Western blot
T2 sequence (P25024 1-350): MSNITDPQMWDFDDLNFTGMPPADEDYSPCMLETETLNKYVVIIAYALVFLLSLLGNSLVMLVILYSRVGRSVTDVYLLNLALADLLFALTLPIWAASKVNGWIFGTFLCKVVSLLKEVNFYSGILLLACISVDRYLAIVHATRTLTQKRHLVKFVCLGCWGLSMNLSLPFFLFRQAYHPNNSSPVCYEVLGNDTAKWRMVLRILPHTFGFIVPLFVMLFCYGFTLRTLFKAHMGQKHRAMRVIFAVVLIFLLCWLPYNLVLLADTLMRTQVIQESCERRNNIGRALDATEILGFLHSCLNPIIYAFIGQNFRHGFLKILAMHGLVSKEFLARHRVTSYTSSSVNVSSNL

O=C(O)[C@H](O)Cc1ccc(O)c(O)c1 [DSS, Danshensu]
thermal stabilization (CETSA) [1]: this thermal stabilization between Danshensu and mCXCR1 was dose dependent from ITDRFCETSA
thermal stabilization (CETSA) [2]: DSS also binds to hCXCR1 to increase its thermal stability

Source: publication PMC9618804, “CXCR1 and its downstream NF-κB inflammation signaling pathway as a key target of Guanxinning injection for myocardial ischemia/reperfusion injury” (Frontiers in Immunology, 2022)
